ChEMBL document CHEMBL1201862, “PubChem BioAssay data set” (2004)
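1) Cells in 96-well plates. 2) Compound, 48 h, 5 concentrations. 3) Linear interpolation between surrounding doses. 4) Unreached endpoint = highest concentration. Here, GI50 denotes the concentration required for 50% inhibition of growth.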 Active and inactive are the calls of the source. No stated cut-off is given here; in the data, active = GI50 up to about 1.1 µM and inactive = higher.

How the values were obtained:
Test in all cases: DTP human tumour cell line panel, 48 h
[1] = tested on: CCRF-CEM
[2] = tested on: K562
[3] = tested on: SK-MEL-5
[4] = tested on: UO-31
[5] = tested on: HOP-92
[6] = tested on: OVCAR-5
[7] = tested on: SK-MEL-2
[8] = tested on: HOP-62
[9] = tested on: Malme-3M
[10] = tested on: KM12
[11] = tested on: LOX IMVI
[12] = tested on: HCT-116
[13] = tested on: A498
[14] = tested on: SN12C
[15] = tested on: NCI/ADR-RES
[16] = tested on: SF-539
[17] = tested on: U-251
[18] = tested on: OVCAR-3
[19] = tested on: SR
[20] = tested on: NCI-H522

| SMILES | GI50 [1] | GI50 [2] | GI50 [3] | GI50 [4] | GI50 [5] | GI50 [6] | GI50 [7] | GI50 [8] | GI50 [9] | GI50 [10] | GI50 [11] | GI50 [12] | GI50 [13] | GI50 [14] | GI50 [15] | GI50 [16] | GI50 [17] | GI50 [18] | GI50 [19] | GI50 [20] |
| --- | --- | --- | --- | --- | --- | --- | --- | --- | --- | --- | --- | --- | --- | --- | --- | --- | --- | --- | --- | --- |
| Cc1ccc2nc3c(C(=O)NCCN(C)C)cccc3cc2c1 | 1.55 µM (inactive) | 2.36 µM (inactive) | 1.76 µM (inactive) | 1.4 µM (inactive) | 1.75 µM (inactive) | 2.1 µM (inactive) | 2.36 µM (inactive) | 2.85 µM (inactive) | 1.77 µM (inactive) | 2.9 µM (inactive) | 1.71 µM (inactive) | 0.807 µM (active) | 1.56 µM (inactive) | 1.76 µM (inactive) | 1.13 µM (inactive) | 3.15 µM (inactive) | 3.26 µM (inactive) | 2 µM (inactive) | – | – |
| CN1C2CC(=O)CC1[C@H](O)[C@@H]2O | > 100 µM (inactive) | > 100 µM (inactive) | – | > 100 µM (inactive) | – | – | > 100 µM (inactive) | > 100 µM (inactive) | > 100 µM (inactive) | > 100 µM (inactive) | > 100 µM (inactive) | > 100 µM (inactive) | – | > 100 µM (inactive) | > 100 µM (inactive) | – | > 100 µM (inactive) | > 100 µM (inactive) | > 100 µM (inactive) | – |
| COc1cc2c(cc1OC)C(=O)/C(=C/c1cc(OC)c(OC)c(OC)c1)C2 | > 100 µM (inactive) | > 100 µM (inactive) | > 100 µM (inactive) | > 100 µM (inactive) | > 100 µM (inactive) | > 100 µM (inactive) | > 100 µM (inactive) | 43.6 µM (inactive) | > 100 µM (inactive) | > 100 µM (inactive) | – | – | > 100 µM (inactive) | > 100 µM (inactive) | 23.7 µM (inactive) | – | > 100 µM (inactive) | > 100 µM (inactive) | > 100 µM (inactive) | 14.6 µM (inactive) |
| COC(=O)C(NC(=O)c1ccccc1)C(c1ccc(Cl)cc1)P(=O)(OC)OC (centres undefined) | > 100 µM (inactive) | > 100 µM (inactive) | > 100 µM (inactive) | > 100 µM (inactive) | > 100 µM (inactive) | > 100 µM (inactive) | > 100 µM (inactive) | > 100 µM (inactive) | – | > 100 µM (inactive) | > 100 µM (inactive) | > 100 µM (inactive) | > 100 µM (inactive) | > 100 µM (inactive) | – | > 100 µM (inactive) | > 100 µM (inactive) | – | > 100 µM (inactive) | > 100 µM (inactive) |
| CC(=O)O[C@H]1CC[C@H]2[C@@H]3CC[C@H]4Nc5c(cnn5S(C)(=O)=O)C[C@]4(C)[C@H]3CC[C@]12C | 7.94 µM (inactive) | 62.7 µM (inactive) | 84.3 µM (inactive) | 88.1 µM (inactive) | 98.9 µM (inactive) | > 100 µM (inactive) | 61.7 µM (inactive) | 27.6 µM (inactive) | 38.7 µM (inactive) | > 100 µM (inactive) | – | 46.8 µM (inactive) | > 100 µM (inactive) | > 100 µM (inactive) | 87.1 µM (inactive) | – | 53.1 µM (inactive) | 27.5 µM (inactive) | > 100 µM (inactive) | 70 µM (inactive) |
| O=S1(=O)C[C@@H](NCc2ccccc2)[C@H](NCc2ccccc2)C1 | > 100 µM (inactive) | > 100 µM (inactive) | > 100 µM (inactive) | > 100 µM (inactive) | > 100 µM (inactive) | > 100 µM (inactive) | > 100 µM (inactive) | 37.4 µM (inactive) | > 100 µM (inactive) | > 100 µM (inactive) | > 100 µM (inactive) | > 100 µM (inactive) | – | > 100 µM (inactive) | > 100 µM (inactive) | > 100 µM (inactive) | > 100 µM (inactive) | > 100 µM (inactive) | > 100 µM (inactive) | 73.6 µM (inactive) |
| COc1ccc2c3c1O[C@H]1C[C@@H](O)C=C[C@@]31CCN(C)C2 [GALANTAMINE] | > 150 µM (inactive) | > 150 µM (inactive) | > 150 µM (inactive) | > 150 µM (inactive) | > 150 µM (inactive) | > 150 µM (inactive) | > 150 µM (inactive) | > 150 µM (inactive) | > 150 µM (inactive) | > 150 µM (inactive) | > 150 µM (inactive) | > 150 µM (inactive) | > 150 µM (inactive) | > 150 µM (inactive) | > 150 µM (inactive) | > 18.9 µM (inactive) | > 150 µM (inactive) | > 150 µM (inactive) | – | > 150 µM (inactive) |
| CN1C2CCC1C(CO)C(=O)C2 (centres undefined) | 10.2 µM (inactive) | 24.6 µM (inactive) | > 100 µM (inactive) | – | > 100 µM (inactive) | – | > 100 µM (inactive) | > 100 µM (inactive) | 28.9 µM (inactive) | > 100 µM (inactive) | > 100 µM (inactive) | – | > 100 µM (inactive) | – | > 100 µM (inactive) | 23.2 µM (inactive) | > 100 µM (inactive) | > 100 µM (inactive) | 26.1 µM (inactive) | 16.1 µM (inactive) |
| CC1OC1C(=O)C1(O)C(C)C(O)C23OC2(C(O)c2c(O)cccc2C3=O)C1O (centres undefined) [CERVICARCIN] | 0.044 µM (active) | 0.175 µM (active) | 0.179 µM (active) | 0.137 µM (active) | 0.033 µM (active) | 0.31 µM (active) | 0.142 µM (active) | 0.0895 µM (active) | 0.0431 µM (active) | 0.298 µM (active) | 0.2 µM (active) | 0.226 µM (active) | 0.352 µM (active) | 0.0557 µM (active) | 0.207 µM (active) | 0.0647 µM (active) | 0.232 µM (active) | 0.0638 µM (active) | – | 0.0964 µM (active) |
| O=C1CN2C(Cl)(Cl)C2(c2ccccc2)c2cc(Cl)ccc2N1CC(F)(F)F (centres undefined) | 18.7 µM (inactive) | 27.8 µM (inactive) | 17.9 µM (inactive) | 36.3 µM (inactive) | 13.6 µM (inactive) | 56.1 µM (inactive) | 24 µM (inactive) | 22.6 µM (inactive) | 22.7 µM (inactive) | 19.6 µM (inactive) | 17.5 µM (inactive) | 21.6 µM (inactive) | – | 16.9 µM (inactive) | – | – | 18.8 µM (inactive) | 18.8 µM (inactive) | 28.9 µM (inactive) | 17.4 µM (inactive) |
